System: HIV-1
Assay: Proof-of-concept trial: HIV-1 RNA in plasma of treatment-naive HIV-infected subjects (ICR, ICD)
Assay type: in vivo, human
Settings: for period for which the decrease of HIV-1 RNA persists off-drug: 7-day / 17-dose course, responsive cohort; for ICR relative to pre-treatment level: regimen-compliant responsive sub-group (Subjects 1, 5, 20, 24)
Procedure: Cell-free supernatants were used for p24 and HIV-1 RNA measurements. p24 core antigen in the supernatant was quantified by ELISA (Retrotek HIV-1 p24®; ZeptoMetrix Corp.; Buffalo, NY). HIV-1 RNA copy number in the supernatant of PBMC cultures and in plasma of trial subjects enrolled in the exploratory deferiprone trial was determined with a PCR-based and FDA-approved assay (Amplicor HIV-1 Monitor®; Roche Diagnostics Corp.; Indianapolis, IN). For clinical samples, the assay was used per the Standard Specimen Processing Procedure (sensitivity limit 400 copies/ml); for cell culture samples, the assay was used in both the Standard Specimen Processing and the UltraSensitive Specimen Processing Procedure (sensitivity limit 50 copies/ml). If not specified further, the term “log10” designates the amount of HIV-1 RNA in the dimensions [log10 / ml]. The Roche Amplicor HIV-1 DNA Test (Roche Diagnostics Corp.; Indianapolis, IN) was used for detection of HIV-1 DNA with the primer pair SK431/462, which amplifies a highly conserved region of the gag genome of HIV-1 subtype B DNA. […] Apoptotic DNA fragmentation was quantified flow-cytometrically, using a terminal deoxynucleotide transferase dUTP nick end-labeling (TUNEL) assay (APO-BRDU™; Phoenix Flow Systems; San Diego, CA). All experiments and assays were performed at least in duplicate.
Eligible for enrollment were volunteers of both genders, between 18 and 60 years old, healthy or HIV-infected with CD4 count ≥ 300/mm^3, viral load of ≥ 10,000 copies/ml, and absence of active infectious disease; AIDS-defining condition; febrile illness; liver or kidney disease; hypersensitivity to test material; and medication requirement. The protocol involved a screening visit; a pharmacokinetic and antiretroviral study requiring admission to a specialized Phase I research unit for a week of on-drug treatment, with multiple blood draws from a peripheral vein after oral intake of the first deferiprone dose, either 33 mg/kg or 50 mg/kg, and at least three repeat blood draws (first stage of protocol); an off-drug observation period of eight weeks, which comprised at least two repeat visits (second stage of protocol); and an exit visit. Enrollment complied with the applicable standard-of-care specified in the ‘Clinical Guidelines for the Management of HIV & AIDS in Adults and Adolescents’, National Department of Health, Republic of South Africa. Primary parameters included safety and tolerability (e.g. vital signs, laboratory variables, cardiac monitoring by ECG) and antiretroviral activity (e.g. RNA copies of HIV-1). Secondary parameters included pharmacokinetic variables (e.g. peak serum concentration) in serum, drawn from a peripheral vein at fixed times (0, 0.5, 1, 1.5, 2, 3, 4, 6, 9, 12) after the ingestion of the first dose on Day 1 of the study. The concentration of the nonconjugated, chelation-competent form of deferiprone in serum was determined by UV detection at 280 nm, after separation via reversed-phase HPLC under isocratic conditions. The lower limit of deferiprone quantitation was 1.466 μM, or 0.204 μg/ml. HIV-1 RNA was measured as described and used as log10-transformed parameter in all calculations.
26 consecutive subjects were randomly enrolled in the IRB-approved proof-of-concept trial and gave written informed consent to be studied (Supporting Information, S2 Text); recruitment of trial subjects commenced in November 2006 and follow-up terminated in April 2008.

[1] = after 8 weeks off-drug, P = 0.003

Question: Which results are given for `Cc1c(O)c(=O)ccn1C` [deferiprone, 3-hydroxy-1,2-dimethylpyridin-4-one]?
Answer: protocol-completing subjects with no viral load change (99 mg group (33 mg/kg/dose orally three times per day)): 66%; ICR after the one-week treatment (99 mg group, Subjects 1, 2, 5, achieved threshold and had a viral response): -0.36 log10; ICR after the one-week treatment (99 mg group, Subjects 4, 6, 8, did not achieve the ≥150 μM threshold): +0.23 log10; ICD between threshold-achieving responders and non-achievers (99 mg group, one-week treatment, P = 0.004): 0.59 log10; within-subject variability of HIV-1 RNA reached after the one-week treatment (99 mg/kg group): -0.45 log10; within-subject variability of HIV-1 RNA reached after the one-week treatment (150 mg group): -0.53 log10; protocol-completing subjects with no viral load change (150 mg group (50 mg/kg/dose orally three times per day)): 25%; ICR after the one-week treatment (150 mg group, Subjects 20, 22, 24, cmax ≥150 μM): -0.39 log10; period for which the decrease of HIV-1 RNA persists off-drug: 8 weeks; period for which the decrease of HIV-1 RNA persists off-drug (listed as Deferiprone): at least 8 weeks; off-drug retention of the HIV-1 RNA reduction as multiple of the drug's half-life (8 weeks off-drug after 17 doses): over 670 times; average level of HIV-1 RNA ('decrease' cohort, after 4 weeks off-drug): 4.44 log10; average level of HIV-1 RNA ('decrease' cohort, after 8 weeks off-drug): 4.52 log10; average level of HIV-1 RNA ('decrease' cohort, after 7 days (4.90 log10 initially)): 4.53 log10; average level of HIV-1 RNA ('no-decrease' cohort, after 4 weeks off-drug): 4.83 log10; average level of HIV-1 RNA ('no-decrease' cohort, after 8 weeks off-drug): 4.70 log10; average level of HIV-1 RNA ('no-decrease' cohort, after 7 days (4.53 log10 initially)): 4.74 log10; ICR after 8 weeks off-drug (DTD 'decrease' cohort): -0.31 log10; ICR at the end of the first stage (S1, Day 7 vs Day 1) (DTD 'decrease' cohort, N = 6): -0.37 log10; ICR after 8 weeks off-drug (DTD 'no-decrease' cohort): +0.17 log10; ICR at the end of the first stage (S1, Day 7 vs Day 1) (DTD 'no-decrease' cohort, N = 5): +0.21 log10; ICR at the end of 8 weeks off-drug (Group A, cmax ≥150 μM): -0.28 log10; intra-cohort response (ICR), HIV-1 RNA Day 7 relative to Day 1 (Group A, cmax ≥150 μM on either dosage, N = 7, 7 days on-drug): -0.27 log10; subjects who achieved the threshold (cmax ≥150 μM) and showed a decline in viral load (Group A, one-week treatment): 6 of the 7; viral load in the 4 subjects who did not achieve the threshold (Group B, one-week treatment): did not show a decline in viral load; ICR at the end of 8 weeks off-drug (Group B, threshold-failing): +0.24 log10; change in viral load during the one-week treatment (Subject 19, 150 mg group, cmax 128 μM): +0.02 log10; ICD Group A vs Group B [1]: 0.52 log10; ICD regimen-compliant 'decrease' sub-group vs 'no-decrease' cohort [1]: 0.61 log10; ICD 'decrease' vs 'no-decrease' cohort (after 8 weeks off-drug, P = 0.008): 0.48 log10; intercohort difference (ICD) Group A vs Group B (after one week on-drug): 0.44 log10; ICD 'decrease' vs 'no-decrease' cohort (end of first stage S1, P = 0.0001): 0.58 log10; intra-cohort response (ICR), HIV-1 RNA Day 7 relative to Day 1 (human, in vivo): +0.17 log10; ICR relative to pre-treatment level (after 8 weeks off-drug): -0.38 log10; ICR relative to pre-treatment level (after 7 days on-drug): -0.40 log10

From paper PMC4871512, “Drug-Based Lead Discovery: The Novel Ablative Antiretroviral Profile of Deferiprone in HIV-1-Infected Cells and in HIV-Infected Treatment-Naive Subjects of a Double-Blind, Placebo-Controlled, Randomized Exploratory Trial” (PLoS ONE, 2016)
